Data: patent publication US4619932A, “Novel carbostyril derivatives, process for producing thereof and pharmaceutical composition containing the same” (Otsuka Pharmaceutical Co., Ltd., priority 1980, dated 1986)
Counter-ions that a name gives are not always drawn. Like-named read-outs stand apart in the source and are kept apart here.

How the values were obtained:
[1] = tested on: jumping behavior induced by Methamphetamine and L-DOPA; assay: Activity for inhibiting jumping behavior in mouse induced by Methamphetamine and L-DOPA; type: in vivo, mouse (male, ddy-strain); conditions: read-out: ED50 value, inhibition of jumping behavior
Method: (B) Activity for inhibiting jumping behavior in mouse induced by Methamphetamine and L-DOPA
Individual male mice of ddy-strain having a body weight of 17 to 25 g were used. The mice were not fed for 24 hours. One test group consisted of 6 mice. A compound to be tested was administered orally. 40Minutes after the administration 4 mg/kg of Methamphetamine d-N-α-dimethylphenthylamine was intraperitonerally administered, further 15 minutes after the administration of Methamphetamine, 400 mg/kg of L-DOPA was intraperitonerally administered. 60 Minutes after the administration of L-DOPA, (3-(3,4-dihydroxyphenyl)alanine) the mouse was placed in a glass beaker of 2 liters capacity, and the number of jumping of the mouse was recorded. The activity for inhibiting jumping behavior of the test compound was determined as positive in case of number of jumping performed by the administered mouse counted 10 or less. While, the activity for inhibiting jumping behabior of the test compound was determined as negative in case the number of jumping performed by the administered mouse recorded over 10. The effective dosage (ED50 value: mg/kg) of the test compound which gives 3 mice were positive over 6 mice of one test group was calculated. The number of jumping performed by the mouse being administered with physiological saline solution as the reference was 150 to 200 per hour. (Cf. H. Lal, F. C. Colpaert, P. Laduron: European J. Pharmacol., 30, 113-116 (1975)).

epinephrine = assay: Activity for antagonizing epinephrine in mouse; type: in vivo, mouse (male, ddy strain); conditions: read-out: ED50 value, dose allowing half the animals to survive
Method: (C) Activity for antagonizing epinephrine in mouse
Individual male mice of ddy strain having 17 to 20 g of body weight were used. The mice were abstained from eating for 24 hours. One test group consist of 10 mice. A compound to be tested was administered orally. One hour after the administration, 40 mg/kg of epinephrine was intraperitonerally administered. […] All of 10 mice administered physiological saline solution as the reference group were dead within a few minutes after the administration of epinephrine. (Cf. Loew, E. R. and Micetich, A., J. Pharmacol. Exp. Ther., 93, 434-443 (1948)).

palpebral ptosis = assay: Palpebral ptosis test in mouse; type: in vivo, mouse (male, ddy-strain); conditions: 64 mg/kg oral, 1 hour; score 0 (wide open eyes) to 8 (eyes completely closed); mean of 10 mice
Method: (D) Activity of palpebral ptosis test in mouse
Individual male mice of ddy-strain having 18 to 20 g of body weight were used. The mice were abstained from eating for 24 hours. One test group consists of 10 mice. […] One hour after the administration, the state of palpebral ptosis of the mouse were observed and evaluated on the basis of the following score system. The mean value was calculated from the scores of 10 mice.
Score Degree of palpebral ptosis
8 Eyes completely closed.

male rats = conditions: rat, in vivo, po
Method: Each of the following compound of the general formula in the present invention was administered orally to male rats to determine the acute toxicity (LD50 mg/kg).

Halothane anesthesia = Halothane anesthesia increasing activity; type: in vivo, mouse (male, ddy-strain); conditions: 16 mg/kg oral, 1 hour before 4% Halothane for 3 minutes; righting reflex
Method: Male mice of ddy-strain a having about 20 g body weight were used. One test group consists of 10 mice. An aqueous Gummi Arabicum suspension of test compound (80 mg of a compound to be tested and 1 g of Gummi Arabicum/100 ml of physiological NaCl solution) was administered orally to each mouse at the dosage of 16 mg of test compound/kg body. One hour after the administration, each mouse was placed in gas respiration chamber (13×13×24 cm) and oxygen gas containing 4% of Halothane (2-brome-2-chloro-1,1,1-trifluoroethane) was flown into the chamber at the velocity of 2/min for 3 minutes. A mouse anaesthetized was taken out from the chamber and the time between the introduction of anesthesia to waking was measured by righting reflex as the index. To mice of control group, 1% Gummi Arabicum aqueous physiological solution was orally administered at the dosage of 0.1 ml/kg body.

[2] = oral, Methamphetamine 4 mg/kg i.p. and L-DOPA 400 mg/kg i.p., positive = 10 or fewer jumps
[3] = oral, 1 hour before epinephrine 40 mg/kg i.p., survival at 24 hours

Row | SMILES | ED50 [1, 2] | ED50 (epinephrine; [3]) | Acute toxicity (LD50) (male rats) | other results
1 | CN(C)CCCN1c2ccccc2Sc2ccc(Cl)cc21 [Chlorpromazine, 2-chloro-N,N-dimethyl-10H-phenothiazine-10-propanamine, reference compound] | – | – | – | ED50 ([1]; po): 7.6 mg/kg; ED50 (epinephrine; po, 24 h): 10.6 mg/kg
2 | O=C1CCc2cc(C(=O)CCN3CCN(c4ccccc4)CC3)ccc2N1 [Compound 1, 6-[1-Oxo-3-(4-phenyl-1-piperazinyl)propyl]-3,4-dihydrocarbostyril] | 1.35 mg/kg | 3.03 mg/kg | 500 mg/kg | Score obtained (Mean value), degree of palpebral ptosis (palpebral ptosis): 1.67; Time (minutes) between introduction of anesthesia to waking (Halothane anesthesia): 13.3 min
3 | O=C1CCc2cc(C(=O)CCCN3CCN(c4ccccc4)CC3)ccc2N1 [Compound 2, 6-[1-Oxo-4-(4-phenyl-1-piperazinyl)butyl]-3,4-dihydrocarbostyril.monohydrochloride] | 1.52 mg/kg | 4.02 mg/kg | 500 mg/kg | Score obtained (Mean value), degree of palpebral ptosis (palpebral ptosis): 4.5; Time (minutes) between introduction of anesthesia to waking (Halothane anesthesia): 11.5 min
4 | CCC(C(=O)c1ccc2[nH]c(=O)ccc2c1)N1CCN(c2cccc(Cl)c2)CC1 (stereo not shown) [Compound 4, 6-{1-Oxo-2-[4-(3-chlorophenyl)-1-piperazinyl]butyl}-carbostyril] | – | – | – | ED50 ([1]; po): 4.05 mg/kg; Score obtained (Mean value), degree of palpebral ptosis (palpebral ptosis): 2.33; Time (minutes) between introduction of anesthesia to waking (Halothane anesthesia): 9.7 min
5 | O=C1CCc2cc(C(O)CCCN3CCN(c4cccc(Cl)c4)CC3)ccc2N1 (stereo not shown) [Compound 5, 6-{1-Hydroxy-4-[4-(3-chlorophenyl)-1-piperazinyl]butyl}-3,4-dihydrocarbostyril] | 1.95 mg/kg | – | 500 mg/kg | Time (minutes) between introduction of anesthesia to waking (Halothane anesthesia): 13.0 min
6 | Cc1cccc(N2CCN(CCC(O)c3ccc4c(c3)CCC(=O)N4)CC2)c1C (stereo not shown) [Compound 6, 6-{1-Hydroxy-3-[4-(2,3-dimethylphenyl)-1-piperazinyl]-propyl}-3,4-dihydrocarbostryril] | – | – | 500 mg/kg | Time (minutes) between introduction of anesthesia to waking (Halothane anesthesia): 8.2 min
7 | O=C1CCc2cc(C(=O)CCN3CCN(c4cccc(Cl)c4)CC3)ccc2N1 [Compound 7, 6-{1-Oxo-3-[4-(3-chlorophenyl)-1-piperazinyl]-propyl}-3,4-dihydrocarbostyril.monohydrochloride] | 1.34 mg/kg | – | 500 mg/kg | Score obtained (Mean value), degree of palpebral ptosis (palpebral ptosis): 1.33
8 | O=C1CCc2cc(C=CCN3CCN(c4cccc(Cl)c4)CC3)ccc2N1 [Compound 8, 6-{3-[4-(3-Chlorophenyl)-1-piperazinyl]-1-propenyl}-3,4-dihydrocarbostyril] | 1.02 mg/kg | – | 500 mg/kg | –
9 | CCOc1ccccc1N1CCN(CC=Cc2ccc3c(c2)CCC(=O)N3)CC1 [Compound 9, 6-{3-[4-(2-Ethoxyphenyl)-1-piperazinyl]-1-propenyl}-3,4-dihydrocarbostyril] | 0.12 mg/kg | 0.005 mg/kg | 500 mg/kg | –
10 | Cc1cccc(N2CCN(CC=Cc3ccc4c(c3)CCC(=O)N4)CC2)c1 [Compound 10, 6-{3-[4-(3-Methylphenyl)-1-piperazinyl]-1-propenyl}-3,4-dihydrocarbostyril] | 6.02 mg/kg | – | 500 mg/kg | –
11 | O=C1CCc2cc(C=CCCN3CCN(c4ccccc4)CC3)ccc2N1 [Compound 11, 6-[4-(4-Phenyl-1-piperazinyl)-1-butenyl]-3,4-dihydrocarbostyril] | 1.6 mg/kg | 4 to 8 mg/kg | 500 mg/kg | –
12 | CCOc1ccccc1N1CCN(CCC=Cc2ccc3c(c2)CCC(=O)N3)CC1 [Compound 12, 6-{4-[4-(2-Ethoxyphenyl)-1-piperazinyl]-1-butenyl}-3,4-dihydrocarbostyril] | 0.056 mg/kg | 0.005 mg/kg | – | –
13 | O=C1CCc2cc(C=CCN3CCN(c4ccc(Cl)cc4)CC3)ccc2N1 [Compound 13, 6-{3-[4-(4-chlorophenyl)-1-piperazinyl]-1-propenyl}-3,4-dihydrocarbostyril] | 4.16 mg/kg | – | 500 mg/kg | –
14 | O=C1CCc2cc(CCCCN3CCN(c4ccccc4Cl)CC3)ccc2N1 [Compound 14, 6-{4-[4-(2-Chlorophenyl)-1-piperazinyl]-butyl}-3,4-dihydrocarbostyril] | 3.23 mg/kg | – | – | –
15 | CCOc1ccccc1N1CCN(CCCCc2ccc3c(c2)CCC(=O)N3)CC1 [Compound 15, 6-{4-[4-(2-Ethoxyphenyl)-1-piperazinyl]-butyl}-3,4-dihydrocarbostyril] | 0.39 mg/kg | 0.71 mg/kg | 500 mg/kg | –
16 | CCOc1ccccc1N1CCN(CCCc2ccc3c(c2)CCC(=O)N3)CC1 [Compound 16, 6-{3-[4-(2-Ethoxyphenyl)-1-piperazinyl]-propyl}-3,4-dihydrocarbostyril] | 0.24 mg/kg | 0.02 mg/kg | 500 mg/kg | –
17 | COc1ccccc1N1CCN(CCCc2ccc3c(c2)CCC(=O)N3)CC1 [Compound 17, 6-{3-[4-(2-Methoxyphenyl)-1-piperazinyl] -propyl}-3,4-dihydrocarbostyril] | – | 0.29 mg/kg | 500 mg/kg | –
18 | O=C1CCc2cc(CCCN3CCN(c4ccccc4)CC3)ccc2N1 [Compound 18, 6-[3-(4-Phenyl-1-piperazinyl)propyl]-3,4-dihydrocarbostyril] | 0.34 mg/kg | 0.21 mg/kg | 500 mg/kg | –
19 | COc1ccccc1N1CCN(CC=Cc2ccc3c(c2)CCC(=O)N3)CC1 [Compound 19] | 0.79 mg/kg | 0.1 mg/kg | 500 mg/kg | –
20 | O=C1CCc2cc(C(=O)CCCN3CC=C(c4ccc(Cl)cc4)CC3)ccc2N1 [Compound 25, 6-{1-Oxo-4-[4-(4-chlorophenyl)-1,2,5,6-tetrahydropyridyl]butyl}-3,4-dihydrocarbostiryl] | – | – | – | ED50 ([1]; po): 9.56 mg/kg
21 | Cc1ccc(C2=CCN(CCC(=O)c3ccc4c(c3)CCC(=O)N4)CC2)cc1 [Compound 26, 6-{1-Oxo-3-[4-(4-methylphenyl)-1,2,5,6-tetrahydropyridyl]propyl}-3,4-dihydrocarbostiryl] | – | – | – | ED50 ([1]; po): 10.3 mg/kg
22 | COc1ccccc1C1=CCN(CC=Cc2ccc3c(c2)CCC(=O)N3)CC1 [Compound 27, 6-{3-[4-(2-Methoxyphenyl)-1,2,5,6-tetrahydropyridyl]-1-propenyl}-3,4-dihydrocarbostyril monooxalate] | – | – | – | ED50 ([1]; po): 1.25 mg/kg
23 | O=C1CCc2cc(C(=O)CCCN3CC=C(c4ccccc4)CC3)ccc2N1 [Compound 28, 6-[1-Oxo-4-(4-phenyl-1,2,5,6-tetrahydropyridyl)butyl]-3,4-dihydrocarbostyril] | – | – | – | ED50 ([1]; po): 8.89 mg/kg
24 | COc1ccccc1C1CCN(CCCc2ccc3c(c2)CCC(=O)N3)CC1.O=C(O)C(=O)O [Compound 29, 6-{3-[4-(2-Methoxyphenyl)-1-piperidyl]-propyl}-3,4-dihydrocarbostyril monooxalate] | 2.01 mg/kg | – | – | –
25 | O=c1ccc2cc(CCCCN3CCN(c4ccccc4)CC3)ccc2[nH]1 [Compound 30, 6-[4-(4-Phenyl-1-piperazinyl)butyl]-carbostyril] | 0.56 mg/kg | – | 500 mg/kg | –
26 | CCOc1ccccc1N1CCN(CCC=Cc2ccc3[nH]c(=O)ccc3c2)CC1 [Compound 31, 6-{4-[4-(2-Ethoxyphenyl)-1-piperazinyl]-1-butenyl}carbostyril] | 0.14 mg/kg | – | – | –
27 | CCC(C(O)c1ccc2[nH]c(=O)ccc2c1)N1CCN(c2cccc(Cl)c2)CC1 (stereo not shown) [Compound 32, 6-{1-Hydroxy-2-[4-(3-chlorophenyl)-1-piperazinyl]butyl}carbostyril] | 4.86 mg/kg | – | – | –
